Test results published in ChEMBL document CHEMBL1201862, “PubChem BioAssay data set” (2004).
Calls of active or inactive are those of the source.

Tests used:
[1] = molecular target: T1, Zinc finger protein mex-5 (Caenorhabditis elegans, UniProt Q9XUB2); experiment: potency of MEX-5 RNA-binding blockers – biochemical, C. elegans, fluorescence polarization, dose response (AID 1960)
T1 sequence (Q9XUB2 whole entry): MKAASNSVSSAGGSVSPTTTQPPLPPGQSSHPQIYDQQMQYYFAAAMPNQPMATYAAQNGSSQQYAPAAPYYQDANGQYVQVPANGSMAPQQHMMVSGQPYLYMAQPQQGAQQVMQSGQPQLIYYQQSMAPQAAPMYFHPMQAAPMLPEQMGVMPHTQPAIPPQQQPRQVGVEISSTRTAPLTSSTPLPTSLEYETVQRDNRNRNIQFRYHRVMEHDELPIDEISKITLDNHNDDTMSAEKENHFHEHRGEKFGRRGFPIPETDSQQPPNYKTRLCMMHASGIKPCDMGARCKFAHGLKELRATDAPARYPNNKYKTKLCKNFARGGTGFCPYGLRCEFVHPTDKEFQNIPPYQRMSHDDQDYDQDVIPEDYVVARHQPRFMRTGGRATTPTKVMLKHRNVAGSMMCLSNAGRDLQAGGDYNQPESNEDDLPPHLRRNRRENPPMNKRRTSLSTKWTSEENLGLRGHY

[2] = molecular target: Serine/threonine-protein phosphatase (Homo sapiens, UniProt Q9BPW0); experiment: inhibition of protein phosphatase 5 activity – biochemical, fluorescence, dose response (AID 2395)
[3] = molecular target: T2, RNA-binding protein pos-1 (Caenorhabditis elegans, UniProt G5EF15); experiment: disruptors of C. elegans POS-1 RNA interaction – biochemical, fluorescence polarization, dose response (AID 1964);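 also: purified POS-1 fused to maltose binding protein made in E. coli; potency of compounds blocking POS-1 binding to fluorescent RNA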
T2 sequence (G5EF15 whole entry): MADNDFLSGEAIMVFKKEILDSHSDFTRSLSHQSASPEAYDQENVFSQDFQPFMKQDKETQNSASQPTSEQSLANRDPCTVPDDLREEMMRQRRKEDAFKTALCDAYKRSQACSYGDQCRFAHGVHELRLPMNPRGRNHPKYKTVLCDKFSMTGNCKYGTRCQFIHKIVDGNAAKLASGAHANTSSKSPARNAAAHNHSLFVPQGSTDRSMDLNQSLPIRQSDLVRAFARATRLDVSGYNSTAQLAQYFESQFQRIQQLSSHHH

[4] = molecular target: T3, Heat shock protein HSP 90-alpha (Homo sapiens, UniProt P07900); experiment: Luminescence-based dose response biochemical high throughput screening assay for inhibitors of the Heat Shock Protein 90 (HSP90). [Related pubchem assays: 1831 (Summary AID.), 1846 (Confirmation screen.), 1789 (Primary screen.)]
Hexokinase HKDC1 = Hexokinase HKDC1 (Homo sapiens, UniProt Q2TB90); experiment: inhibition of HKDC1 glucose phosphorylation – biochemical, W721R variant, dose response (AID 504729); type: functional
[5] = viability loss in HeLa cells – cytotoxicity control for MgcRacGAP inhibitor project, dose response (AID 624300); type: functional
[6] = molecular target: T4, Rac GTPase-activating protein 1 (Homo sapiens, UniProt Q9H0H5); experiment: blockers of MgcRacGAP-driven Rac1 GTP hydrolysis – biochemical, ADP Hunter fluorescence, primary and confirmatory, confirmation (AID 624330); type: functional
T4 sequence (Q9H0H5 whole entry): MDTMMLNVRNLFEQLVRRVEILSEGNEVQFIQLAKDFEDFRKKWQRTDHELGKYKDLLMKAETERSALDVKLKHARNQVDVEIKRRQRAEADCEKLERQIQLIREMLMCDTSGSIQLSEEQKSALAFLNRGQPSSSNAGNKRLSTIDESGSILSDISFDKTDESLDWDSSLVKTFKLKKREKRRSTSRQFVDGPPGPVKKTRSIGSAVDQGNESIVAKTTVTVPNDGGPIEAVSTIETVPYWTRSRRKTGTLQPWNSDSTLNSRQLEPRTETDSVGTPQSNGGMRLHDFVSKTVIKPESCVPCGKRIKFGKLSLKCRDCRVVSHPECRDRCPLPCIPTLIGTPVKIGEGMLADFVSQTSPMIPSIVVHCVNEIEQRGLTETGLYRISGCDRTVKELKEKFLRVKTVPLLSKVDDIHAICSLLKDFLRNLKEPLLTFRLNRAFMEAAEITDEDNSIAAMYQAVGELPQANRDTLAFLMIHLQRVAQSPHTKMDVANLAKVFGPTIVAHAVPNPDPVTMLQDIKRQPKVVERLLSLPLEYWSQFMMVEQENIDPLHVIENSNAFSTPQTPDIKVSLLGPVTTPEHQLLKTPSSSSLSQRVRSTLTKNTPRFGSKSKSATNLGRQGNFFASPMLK

[7] = Luminescence Cell-Based Dose Confirmation HTS to Identify Inhibitors of Platelet Dense Granule Release. [Related pubchem assays: 1663 (Primary HTS), 1678 (Summary of Project)]; type: functional
Wee1-like protein kinase = Wee1-like protein kinase (Homo sapiens, UniProt P30291); experiment: Dose Response Cell-based Assay for Inhibitors of Wee1 Degradation. [Related pubchem assays: 1410, 1321 ]; type: functional
Beta Lactamase = Beta Lactamase (Pseudomonas aeruginosa, UniProt Q932Y6); experiment: BLA reporter interference, concentration series – BLA reporter cells, FRET fluorescence, artefact control for TLR9-MyD88 binding inhibitor project, dose response (AID 588341); type: cell-based;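 also: cell based assay in CHO-K1 cells stably expressing beta-lactamase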
[8] = non-specific 3'UTR reporter inhibition in Clone20-Shn3RL – cell-based, Renilla luciferase, cherry-picked, counter-screen for Shn3 inhibitor project, dose response (AID 624133); type: functional
[9] = molecular target: T3, Heat shock protein HSP 90-alpha; type: functional, organism-based
[10] = Luminescence Cell-Based Dose Response HTS to Identify Inhibitors of 5'UTR Stem-Loop Driven Prion Protein mRNA Translation in H4 Neuroglioblastoma Cells. [Related pubchem assays: 1827 (Project Summary), 1813 (Primary HTS)]; type: functional
[11] = luciferase reporter signal suppression in cells – H4 neuroglioma cells, luminescence, dose response (AID 1990); type: functional, cell-based
Beta-galactosidase = Beta-galactosidase (Escherichia coli, UniProt Q8VNN2); type: functional
[12] = viability of PTEN-deleted HCT116 cells – cell-based, HCT116 PTEN knockout, dose response (AID 1047); type: functional;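 also: HCT116 colon tumor cells with PTEN knocked out; cells exposed to compound for 60 hours before readout; potency for loss of cell viability measured by luminescence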
[13] = alpha-synuclein stem-loop luciferase translation blockers – H4 neuroglioma cells, luminescence, confirmation (AID 1988); type: functional, cell-based

Beta-galactosidase, sequence (Q8VNN2 whole entry): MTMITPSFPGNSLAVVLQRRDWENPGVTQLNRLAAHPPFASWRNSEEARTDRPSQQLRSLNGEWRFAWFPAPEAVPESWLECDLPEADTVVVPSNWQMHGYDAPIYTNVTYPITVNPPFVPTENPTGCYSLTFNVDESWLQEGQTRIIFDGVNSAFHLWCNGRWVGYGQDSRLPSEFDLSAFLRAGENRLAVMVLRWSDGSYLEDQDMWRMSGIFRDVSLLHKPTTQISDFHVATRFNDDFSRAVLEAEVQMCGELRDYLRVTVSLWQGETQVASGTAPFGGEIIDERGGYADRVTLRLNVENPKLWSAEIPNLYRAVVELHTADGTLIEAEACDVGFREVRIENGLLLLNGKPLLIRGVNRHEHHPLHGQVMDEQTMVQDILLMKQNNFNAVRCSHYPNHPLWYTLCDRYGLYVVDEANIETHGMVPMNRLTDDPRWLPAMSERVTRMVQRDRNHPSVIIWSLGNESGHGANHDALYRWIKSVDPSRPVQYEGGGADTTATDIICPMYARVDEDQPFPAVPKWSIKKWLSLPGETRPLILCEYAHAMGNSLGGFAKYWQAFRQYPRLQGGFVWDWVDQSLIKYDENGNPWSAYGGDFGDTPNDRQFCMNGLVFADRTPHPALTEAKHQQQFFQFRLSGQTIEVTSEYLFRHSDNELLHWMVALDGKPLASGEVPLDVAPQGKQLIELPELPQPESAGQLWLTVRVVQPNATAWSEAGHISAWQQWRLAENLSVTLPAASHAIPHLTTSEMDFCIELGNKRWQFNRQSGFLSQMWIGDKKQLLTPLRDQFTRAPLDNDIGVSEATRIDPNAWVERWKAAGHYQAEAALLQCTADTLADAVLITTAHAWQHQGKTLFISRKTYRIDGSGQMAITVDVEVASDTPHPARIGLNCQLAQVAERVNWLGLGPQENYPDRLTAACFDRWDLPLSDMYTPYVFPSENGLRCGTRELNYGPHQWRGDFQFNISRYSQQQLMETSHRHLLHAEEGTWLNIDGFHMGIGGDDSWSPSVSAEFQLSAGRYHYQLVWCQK
Hexokinase HKDC1, sequence (Q2TB90 whole entry): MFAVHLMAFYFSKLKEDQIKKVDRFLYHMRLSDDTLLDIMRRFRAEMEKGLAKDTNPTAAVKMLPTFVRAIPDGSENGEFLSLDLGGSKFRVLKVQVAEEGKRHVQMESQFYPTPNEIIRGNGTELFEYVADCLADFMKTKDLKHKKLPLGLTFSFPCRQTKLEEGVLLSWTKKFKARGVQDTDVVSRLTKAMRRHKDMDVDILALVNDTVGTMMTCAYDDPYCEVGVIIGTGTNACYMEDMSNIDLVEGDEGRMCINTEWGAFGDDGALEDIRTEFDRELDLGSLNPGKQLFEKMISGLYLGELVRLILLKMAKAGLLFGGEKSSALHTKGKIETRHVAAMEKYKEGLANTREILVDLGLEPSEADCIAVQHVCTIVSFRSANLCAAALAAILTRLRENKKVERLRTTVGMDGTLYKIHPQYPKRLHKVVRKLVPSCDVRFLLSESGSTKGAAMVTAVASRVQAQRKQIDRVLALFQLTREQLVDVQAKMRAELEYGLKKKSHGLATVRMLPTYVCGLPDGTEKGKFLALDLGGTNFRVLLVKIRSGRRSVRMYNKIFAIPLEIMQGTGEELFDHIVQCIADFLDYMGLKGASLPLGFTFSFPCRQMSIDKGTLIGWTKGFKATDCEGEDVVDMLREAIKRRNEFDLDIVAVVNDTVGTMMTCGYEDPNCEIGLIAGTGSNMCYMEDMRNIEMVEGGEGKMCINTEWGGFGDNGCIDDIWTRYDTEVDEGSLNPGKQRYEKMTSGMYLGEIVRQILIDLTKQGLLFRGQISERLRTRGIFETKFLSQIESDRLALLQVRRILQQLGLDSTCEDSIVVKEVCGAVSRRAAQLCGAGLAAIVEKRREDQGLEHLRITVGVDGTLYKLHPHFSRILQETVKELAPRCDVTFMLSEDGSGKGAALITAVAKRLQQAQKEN
Beta Lactamase, sequence (Q932Y6 whole entry): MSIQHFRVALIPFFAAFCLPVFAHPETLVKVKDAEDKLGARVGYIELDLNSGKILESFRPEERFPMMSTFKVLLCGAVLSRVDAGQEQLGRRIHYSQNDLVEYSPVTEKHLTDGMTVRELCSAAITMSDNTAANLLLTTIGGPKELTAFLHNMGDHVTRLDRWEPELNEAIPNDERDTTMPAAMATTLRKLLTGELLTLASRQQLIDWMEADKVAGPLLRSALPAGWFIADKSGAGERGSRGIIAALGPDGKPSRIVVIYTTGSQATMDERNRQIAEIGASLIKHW
Serine/threonine-protein phosphatase, sequence (Q9BPW0 whole entry, the tested form may be a part): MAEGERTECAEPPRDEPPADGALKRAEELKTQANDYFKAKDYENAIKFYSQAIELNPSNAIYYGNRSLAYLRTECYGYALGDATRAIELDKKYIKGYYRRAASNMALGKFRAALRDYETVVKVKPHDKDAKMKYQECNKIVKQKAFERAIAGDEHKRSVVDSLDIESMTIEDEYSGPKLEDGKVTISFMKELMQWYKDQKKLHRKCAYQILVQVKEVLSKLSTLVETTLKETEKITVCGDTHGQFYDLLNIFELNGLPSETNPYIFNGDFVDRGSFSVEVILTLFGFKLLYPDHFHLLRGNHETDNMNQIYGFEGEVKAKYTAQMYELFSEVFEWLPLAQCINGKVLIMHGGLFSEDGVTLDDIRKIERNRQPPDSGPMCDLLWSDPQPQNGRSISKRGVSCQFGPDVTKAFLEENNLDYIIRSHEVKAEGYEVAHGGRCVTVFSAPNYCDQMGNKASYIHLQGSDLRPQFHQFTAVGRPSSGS
Wee1-like protein kinase, sequence (P30291 whole entry): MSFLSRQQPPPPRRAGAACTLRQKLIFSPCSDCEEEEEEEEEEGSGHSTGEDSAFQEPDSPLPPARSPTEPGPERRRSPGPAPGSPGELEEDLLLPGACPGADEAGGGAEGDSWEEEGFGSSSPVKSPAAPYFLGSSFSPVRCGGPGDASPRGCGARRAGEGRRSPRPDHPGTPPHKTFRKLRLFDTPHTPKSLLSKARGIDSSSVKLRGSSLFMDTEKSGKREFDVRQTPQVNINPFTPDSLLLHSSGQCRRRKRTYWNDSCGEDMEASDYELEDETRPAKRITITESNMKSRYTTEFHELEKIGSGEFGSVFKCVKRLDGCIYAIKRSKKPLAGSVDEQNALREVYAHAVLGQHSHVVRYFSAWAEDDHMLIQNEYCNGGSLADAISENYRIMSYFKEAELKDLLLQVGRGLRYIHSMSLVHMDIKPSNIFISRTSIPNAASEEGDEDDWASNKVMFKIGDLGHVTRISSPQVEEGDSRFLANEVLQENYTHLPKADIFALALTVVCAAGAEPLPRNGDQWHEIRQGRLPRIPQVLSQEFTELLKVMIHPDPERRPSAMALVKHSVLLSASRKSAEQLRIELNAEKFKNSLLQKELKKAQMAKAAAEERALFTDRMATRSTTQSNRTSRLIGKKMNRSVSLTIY

| SMILES | EC50 [1] | IC50 [2] | EC50 [3] | IC50 [4] | IC50 (Hexokinase HKDC1) | CC50 [5] | IC50 [6] | EC50 [7] | EC50 (Wee1-like protein kinase) | IC50 (Beta Lactamase) | AC50 [8] | AC50 [9] | EC50 [10] | EC50 [11] | EC50 (Beta-galactosidase) | EC50 [12] | EC50 [13] |
| --- | --- | --- | --- | --- | --- | --- | --- | --- | --- | --- | --- | --- | --- | --- | --- | --- | --- |
| Cc1ccc(S(=O)(=O)/N=C2\C=C(Nc3cccc(C(=O)O)c3)C(=O)c3ccccc32)c(C)c1 | 31.7 µM (active) | 12.3 µM (not active) | 68.6 µM (active) | 0.919 µM (active) | 8.6 µM (active) |  |  |  |  |  |  |  |  |  |  |  |  |
| COc1ccc(NC(=O)/C(Cl)=C(/Cl)[S+]([O-])Cc2ccccc2)cn1 (configuration not stated) |  |  |  |  |  | 24.1 µM (active) | 36.5 µM (active) | 6.34 µM (active) | > 49.7 µM (not active) | 16 µM (inactive) | < 0.26 µM (active) | 2 µM (active) | 0.998 µM (active) | 5.93 µM (active) | > 31.5 µM (inactive) | 0.197 µM (active) | 4.57 µM (active) |
